From ChEMBL document CHEMBL1149946, “The conformation of cyclosporin a bound to cyclophilin is altered (once again) following binding to calcineurin: an analysis of receptor-ligand-receptor interactions” (Bioorg Med Chem Lett, 1992)

Test: Compound was evaluated for its binding affinity towards cyclophilin (Cyp)

Row | SMILES | Kd
1 | C/C=C/CC(C)(C)[C@@H](O)[C@H]1C(=O)N[C@@H](CC)C(=O)N(C)CC(=O)N(C)[C@@H](CC(C)C)C(=O)N[C@@H](C(C)C)C(=O)N(C)[C@@H](CC(C)C)C(=O)N[C@@H](C)C(=O)N[C@@H](C)C(=O)N(C)[C@@H](CC(C)C)C(=O)N(C)[C@@H](CC(C)C)C(=O)N(C)[C@@H](C(C)C)C(=O)N1C | 500 nM
2 | C/C=C/C[C@@H](C)[C@H](O)[C@H]1C(=O)N[C@@H](CC)C(=O)N(C)CC(=O)N(C)[C@@H](CC(C)C)C(=O)N[C@H](C(C)C)C(=O)N(C)CC(=O)N[C@@H](C)C(=O)N[C@H](C)C(=O)N(C)[C@H](CC(C)C)C(=O)N(C)[C@H](CC(C)C)C(=O)N(C)[C@H](C(C)C)C(=O)N1C | 13 nM
